Assay: Storage of the aqueous ophthalmic composition in polyethylene bottles: concentration of active ingredient over time
Format: physicochemical
Conditions: for concentration upon storage at low temperature / concentration upon storage at room temperature: polyethylene bottles; for concentration upon storage at low temperature: low (2-8° C.) temperature
Experimental: The ophthalmic products XALATAN® (comprising approximately 50 μg/ml latanoprost) and XALCOM® (comprising approximately 50 μg/ml latanoprost and 5 mg/ml timolol) are packaged in bottles. The bottle is typically made of clear low-density polyethylene with a clear low-density polyethylene dropper tip, a high-density polyethylene screw cap, and a clear low-density polyethylene overcap. Unopened bottles are stored at 2-8° C.
While storage at recommended temperature has proven to be an effective way of maintaining product stability of the ophthalmic products, it would be desirable to store such ophthalmic products at room temperature for prolonged periods without adversely affecting the concentration(s) of the active ingredient(s).
Following extensive research, a better understanding of the above-mentioned phenomenon has now been achieved. When the polyethylene packages are stored, moisture from the composition is lost to the atmosphere. Moreover, prostaglandin itself is absorbed into or adsorbed to the bottle resin and thus removed from the composition. […] Thus, the concentration of timolol increases over time and may have undesired systemic effects upon administration to the eye. This net effect of this phenomenon is more pronounced at room temperature than at low temperature.

## CC(C)OC(=O)CCC/C=C\C[C@@H]1[C@@H](CC[C@@H](O)CCc2ccccc2)[C@H](O)C[C@@H]1O [latanoprost]
  concentration upon storage at low temperature: maintained at a nearly constant level
  concentration upon storage at room temperature: maintained at a nearly constant level

## CC(C)(C)NC[C@H](O)COc1nsnc1N1CCOCC1 [timolol, (S)-1-[(1,1-dimethylethyl)amino]-3-[ [4-(4-morpholinyl)-1,2,5-thiadiazol-3-yl]oxy]-2-propanol]
  concentration upon storage at low temperature: maintained at a nearly constant level
  concentration upon storage at room temperature: increases gradually over time
Polyethylene packages on storage
  loss to the atmosphere or absorption/adsorption by the package material: neither lost to the atmosphere nor absorbed/adsorbed by the package material to any large extent

— patent US20050048122A1, “Method for stabalizing timolol concentration” (Pharmacia & Upjohn Company, priority 2003, published 2005)
